This note sets out measurements from PubChem BioAssay AID1963837 (Molecular Pharmacology Branch, DTP, NCI, 2024).
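Wherever viability, T/C is given: spheroids exposed to drugs for seven days before readout.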

One assay has as its system 843126-344-R-J1-PDC complex spheroid viability. The experiment in a line: Anticancer human tumor 843126-344-R-J1-PDC patient-derived melanoma cell line growth inhibition [POLQ]. The conditions noted are these: curve of first compound; second compound 0.0316 µM. In a few lines: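 PDC + HUVEC + MSC complex spheroids; POLQ inhibitors ± partner drugs; top conc. at/near clinical Cmax, else 10 microM (SN-38 1 microM), half-log dilutions; 37 degrees C, 5% CO2.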
For `C#Cc1c(F)ccc2cc(O)cc(-c3ncc4c(N5CC6CCC(C5)N6)nc(OCC56CCCN5CC(F)C6)nc4c3F)c12` (configuration not stated) + Cc1cccc(N(C)C(=O)C2C(O)CCN2c2nc(C)cc(C(F)(F)F)c2C#N)c1, the IC50 was over 10000 nM.
In the case of `CC1COCCN1c1cc(C2(O)CC3CCC(C2)O3)c2cnn(-c3ccn[nH]3)c2n1` (configuration not stated) + Cc1cccc(N(C)C(=O)C2C(O)CCN2c2nc(C)cc(C(F)(F)F)c2C#N)c1, the half-maximal inhibitory concentration (IC50) stood at 487 nM.
As for `O=C(Nc1ccc(O)c(NS(=O)(=O)c2ccc(F)cc2)c1)c1ccc(-c2ccccc2)cc1` + Cc1cccc(N(C)C(=O)C2C(O)CCN2c2nc(C)cc(C(F)(F)F)c2C#N)c1, the half-inhibitory concentration (IC50) is over 10000 nM.
`COc1cccc2c1C(=O)c1c(O)c3c(c(O)c1C2=O)CC(O)(C(=O)CO)CC3OC1CC(N)C(O)C(C)O1` (configuration not stated) + Nc1ccc(C#CCN(C(=O)Cc2ncc(C(F)(F)F)cc2C(F)(F)F)c2ccc(F)cc2)nn1: the concentration for half-maximal inhibition (IC50) turned out to be 393 nM.

Staying with this assay, now noted: curve of first compound; second compound 0.1 µM.
With `C#Cc1c(F)ccc2cc(O)cc(-c3ncc4c(N5CC6CCC(C5)N6)nc(OCC56CCCN5CC(F)C6)nc4c3F)c12` (configuration not stated) + Cc1cccc(N(C)C(=O)C2C(O)CCN2c2nc(C)cc(C(F)(F)F)c2C#N)c1, the half-maximal inhibitory concentration (IC50) is over 10000 nM.
Consider `CC1COCCN1c1cc(C2(O)CC3CCC(C2)O3)c2cnn(-c3ccn[nH]3)c2n1` (configuration not stated) + Cc1cccc(N(C)C(=O)C2C(O)CCN2c2nc(C)cc(C(F)(F)F)c2C#N)c1, for which the 50% inhibitory concentration (IC50) came to 470 nM.
As for `O=C(Nc1ccc(O)c(NS(=O)(=O)c2ccc(F)cc2)c1)c1ccc(-c2ccccc2)cc1` + Cc1cccc(N(C)C(=O)C2C(O)CCN2c2nc(C)cc(C(F)(F)F)c2C#N)c1, the IC50 was over 10000 nM.
Same read-out and setting: with `COc1cccc2c1C(=O)c1c(O)c3c(c(O)c1C2=O)CC(O)(C(=O)CO)CC3OC1CC(N)C(O)C(C)O1` (configuration not stated) + Nc1ccc(C#CCN(C(=O)Cc2ncc(C(F)(F)F)cc2C(F)(F)F)c2ccc(F)cc2)nn1 the figure was 412 nM.

The assay is the same for the next values; noted with them: curve of first compound; second compound 0.316 µM.
Consider `C#Cc1c(F)ccc2cc(O)cc(-c3ncc4c(N5CC6CCC(C5)N6)nc(OCC56CCCN5CC(F)C6)nc4c3F)c12` (configuration not stated) + Cc1cccc(N(C)C(=O)C2C(O)CCN2c2nc(C)cc(C(F)(F)F)c2C#N)c1, for which the IC50 is over 10000 nM.
Same read-out and setting: with `CC1COCCN1c1cc(C2(O)CC3CCC(C2)O3)c2cnn(-c3ccn[nH]3)c2n1` (configuration not stated) + Cc1cccc(N(C)C(=O)C2C(O)CCN2c2nc(C)cc(C(F)(F)F)c2C#N)c1 the figure was 580 nM.
As for `O=C(Nc1ccc(O)c(NS(=O)(=O)c2ccc(F)cc2)c1)c1ccc(-c2ccccc2)cc1` + Cc1cccc(N(C)C(=O)C2C(O)CCN2c2nc(C)cc(C(F)(F)F)c2C#N)c1, the IC50 was over 10000 nM.
In the case of `COc1cccc2c1C(=O)c1c(O)c3c(c(O)c1C2=O)CC(O)(C(=O)CO)CC3OC1CC(N)C(O)C(C)O1` (configuration not stated) + Nc1ccc(C#CCN(C(=O)Cc2ncc(C(F)(F)F)cc2C(F)(F)F)c2ccc(F)cc2)nn1, the IC50 was determined as 293 nM.

The assay is the same for the next values; noted with them: curve of first compound; second compound 1 µM.
`C#Cc1c(F)ccc2cc(O)cc(-c3ncc4c(N5CC6CCC(C5)N6)nc(OCC56CCCN5CC(F)C6)nc4c3F)c12` (configuration not stated) + Cc1cccc(N(C)C(=O)C2C(O)CCN2c2nc(C)cc(C(F)(F)F)c2C#N)c1: the IC50 is over 10000 nM.
The same measure, in the same setting: with `CC1COCCN1c1cc(C2(O)CC3CCC(C2)O3)c2cnn(-c3ccn[nH]3)c2n1` (configuration not stated) + Cc1cccc(N(C)C(=O)C2C(O)CCN2c2nc(C)cc(C(F)(F)F)c2C#N)c1 the figure was 385 nM; with `O=C(Nc1ccc(O)c(NS(=O)(=O)c2ccc(F)cc2)c1)c1ccc(-c2ccccc2)cc1` + Cc1cccc(N(C)C(=O)C2C(O)CCN2c2nc(C)cc(C(F)(F)F)c2C#N)c1, over 10000 nM.
Same read-out and setting: under `COc1cccc2c1C(=O)c1c(O)c3c(c(O)c1C2=O)CC(O)(C(=O)CO)CC3OC1CC(N)C(O)C(C)O1` (configuration not stated) + Nc1ccc(C#CCN(C(=O)Cc2ncc(C(F)(F)F)cc2C(F)(F)F)c2ccc(F)cc2)nn1 stands 348 nM.

Staying with this assay, now noted: curve of first compound; second compound 3.16 µM.
For `C#Cc1c(F)ccc2cc(O)cc(-c3ncc4c(N5CC6CCC(C5)N6)nc(OCC56CCCN5CC(F)C6)nc4c3F)c12` (configuration not stated) + Cc1cccc(N(C)C(=O)C2C(O)CCN2c2nc(C)cc(C(F)(F)F)c2C#N)c1, the IC50 was over 10000 nM.
As to `CC1COCCN1c1cc(C2(O)CC3CCC(C2)O3)c2cnn(-c3ccn[nH]3)c2n1` (configuration not stated) + Cc1cccc(N(C)C(=O)C2C(O)CCN2c2nc(C)cc(C(F)(F)F)c2C#N)c1, the half-maximal inhibitory concentration (IC50) was 640 nM.
With `O=C(Nc1ccc(O)c(NS(=O)(=O)c2ccc(F)cc2)c1)c1ccc(-c2ccccc2)cc1` + Cc1cccc(N(C)C(=O)C2C(O)CCN2c2nc(C)cc(C(F)(F)F)c2C#N)c1, the IC50 is over 10000 nM.
Same read-out and setting: under `COc1cccc2c1C(=O)c1c(O)c3c(c(O)c1C2=O)CC(O)(C(=O)CO)CC3OC1CC(N)C(O)C(C)O1` (configuration not stated) + Nc1ccc(C#CCN(C(=O)Cc2ncc(C(F)(F)F)cc2C(F)(F)F)c2ccc(F)cc2)nn1 stands 290 nM.

Still in this assay, the particulars now being: curve of first compound; second compound 10 µM.
In the case of `C#Cc1c(F)ccc2cc(O)cc(-c3ncc4c(N5CC6CCC(C5)N6)nc(OCC56CCCN5CC(F)C6)nc4c3F)c12` (configuration not stated) + Cc1cccc(N(C)C(=O)C2C(O)CCN2c2nc(C)cc(C(F)(F)F)c2C#N)c1, the IC50 is over 10000 nM.
`CC1COCCN1c1cc(C2(O)CC3CCC(C2)O3)c2cnn(-c3ccn[nH]3)c2n1` (configuration not stated) + Cc1cccc(N(C)C(=O)C2C(O)CCN2c2nc(C)cc(C(F)(F)F)c2C#N)c1: the IC50 amounted to 763 nM.
For `O=C(Nc1ccc(O)c(NS(=O)(=O)c2ccc(F)cc2)c1)c1ccc(-c2ccccc2)cc1` + Cc1cccc(N(C)C(=O)C2C(O)CCN2c2nc(C)cc(C(F)(F)F)c2C#N)c1, the IC50 was over 10000 nM.
On to `COc1cccc2c1C(=O)c1c(O)c3c(c(O)c1C2=O)CC(O)(C(=O)CO)CC3OC1CC(N)C(O)C(C)O1` (configuration not stated) + Nc1ccc(C#CCN(C(=O)Cc2ncc(C(F)(F)F)cc2C(F)(F)F)c2ccc(F)cc2)nn1, for which the half-maximal inhibitory concentration (IC50) worked out at 288 nM.

The assay is the same for the next values; noted with them: second compound 0.0316 µM; first compound 0.0316 µM; stronger effect = lower value.
Consider `C#Cc1c(F)ccc2cc(O)cc(-c3ncc4c(N5CC6CCC(C5)N6)nc(OCC56CCCN5CC(F)C6)nc4c3F)c12` (configuration not stated) + Cc1cccc(N(C)C(=O)C2C(O)CCN2c2nc(C)cc(C(F)(F)F)c2C#N)c1, for which the viability, T/C is 88%.
On to `CC1COCCN1c1cc(C2(O)CC3CCC(C2)O3)c2cnn(-c3ccn[nH]3)c2n1` (configuration not stated) + Cc1cccc(N(C)C(=O)C2C(O)CCN2c2nc(C)cc(C(F)(F)F)c2C#N)c1, for which the viability, T/C is 95.7%.
Take `O=C(Nc1ccc(O)c(NS(=O)(=O)c2ccc(F)cc2)c1)c1ccc(-c2ccccc2)cc1` + Cc1cccc(N(C)C(=O)C2C(O)CCN2c2nc(C)cc(C(F)(F)F)c2C#N)c1: the viability, T/C was 90%.
The same measure, in the same setting: under `COc1cccc2c1C(=O)c1c(O)c3c(c(O)c1C2=O)CC(O)(C(=O)CO)CC3OC1CC(N)C(O)C(C)O1` (configuration not stated) + Nc1ccc(C#CCN(C(=O)Cc2ncc(C(F)(F)F)cc2C(F)(F)F)c2ccc(F)cc2)nn1 stands 84.7%.

Staying with this assay, now noted: second compound 0.0316 µM; first compound 0.1 µM; stronger effect = lower value.
Regarding `C#Cc1c(F)ccc2cc(O)cc(-c3ncc4c(N5CC6CCC(C5)N6)nc(OCC56CCCN5CC(F)C6)nc4c3F)c12` (configuration not stated) + Cc1cccc(N(C)C(=O)C2C(O)CCN2c2nc(C)cc(C(F)(F)F)c2C#N)c1, the viability, T/C was 81.1%.
`CC1COCCN1c1cc(C2(O)CC3CCC(C2)O3)c2cnn(-c3ccn[nH]3)c2n1` (configuration not stated) + Cc1cccc(N(C)C(=O)C2C(O)CCN2c2nc(C)cc(C(F)(F)F)c2C#N)c1: the viability, T/C is 78.6%.
Same read-out and setting: under `O=C(Nc1ccc(O)c(NS(=O)(=O)c2ccc(F)cc2)c1)c1ccc(-c2ccccc2)cc1` + Cc1cccc(N(C)C(=O)C2C(O)CCN2c2nc(C)cc(C(F)(F)F)c2C#N)c1 stands 95.2%.
On the same count and under the same terms, under `COc1cccc2c1C(=O)c1c(O)c3c(c(O)c1C2=O)CC(O)(C(=O)CO)CC3OC1CC(N)C(O)C(C)O1` (configuration not stated) + Nc1ccc(C#CCN(C(=O)Cc2ncc(C(F)(F)F)cc2C(F)(F)F)c2ccc(F)cc2)nn1 stands 84.8%.

The assay is the same for the next values; noted with them: second compound 0.0316 µM; first compound 0.316 µM; stronger effect = lower value.
Turning to `C#Cc1c(F)ccc2cc(O)cc(-c3ncc4c(N5CC6CCC(C5)N6)nc(OCC56CCCN5CC(F)C6)nc4c3F)c12` (configuration not stated) + Cc1cccc(N(C)C(=O)C2C(O)CCN2c2nc(C)cc(C(F)(F)F)c2C#N)c1, the viability, T/C was 79.9%.
As to `CC1COCCN1c1cc(C2(O)CC3CCC(C2)O3)c2cnn(-c3ccn[nH]3)c2n1` (configuration not stated) + Cc1cccc(N(C)C(=O)C2C(O)CCN2c2nc(C)cc(C(F)(F)F)c2C#N)c1, the viability, T/C was 48.2%.
On to `O=C(Nc1ccc(O)c(NS(=O)(=O)c2ccc(F)cc2)c1)c1ccc(-c2ccccc2)cc1` + Cc1cccc(N(C)C(=O)C2C(O)CCN2c2nc(C)cc(C(F)(F)F)c2C#N)c1, for which the viability, T/C was 93.6%.
Turning to `COc1cccc2c1C(=O)c1c(O)c3c(c(O)c1C2=O)CC(O)(C(=O)CO)CC3OC1CC(N)C(O)C(C)O1` (configuration not stated) + Nc1ccc(C#CCN(C(=O)Cc2ncc(C(F)(F)F)cc2C(F)(F)F)c2ccc(F)cc2)nn1, the viability, T/C was 57.3%.

Staying with this assay, now noted: second compound 0.0316 µM; first compound 1 µM; stronger effect = lower value.
For the compound `C#Cc1c(F)ccc2cc(O)cc(-c3ncc4c(N5CC6CCC(C5)N6)nc(OCC56CCCN5CC(F)C6)nc4c3F)c12` (configuration not stated) + Cc1cccc(N(C)C(=O)C2C(O)CCN2c2nc(C)cc(C(F)(F)F)c2C#N)c1, the viability, T/C is 71.3%.
As to `CC1COCCN1c1cc(C2(O)CC3CCC(C2)O3)c2cnn(-c3ccn[nH]3)c2n1` (configuration not stated) + Cc1cccc(N(C)C(=O)C2C(O)CCN2c2nc(C)cc(C(F)(F)F)c2C#N)c1, the viability, T/C was 44.8%.
Regarding `O=C(Nc1ccc(O)c(NS(=O)(=O)c2ccc(F)cc2)c1)c1ccc(-c2ccccc2)cc1` + Cc1cccc(N(C)C(=O)C2C(O)CCN2c2nc(C)cc(C(F)(F)F)c2C#N)c1, the viability, T/C was 90.3%.
As to `COc1cccc2c1C(=O)c1c(O)c3c(c(O)c1C2=O)CC(O)(C(=O)CO)CC3OC1CC(N)C(O)C(C)O1` (configuration not stated) + Nc1ccc(C#CCN(C(=O)Cc2ncc(C(F)(F)F)cc2C(F)(F)F)c2ccc(F)cc2)nn1, the viability, T/C was 16.1%.

Still in this assay, the particulars now being: second compound 0.0316 µM; first compound 3.16 µM; stronger effect = lower value.
Turning to `C#Cc1c(F)ccc2cc(O)cc(-c3ncc4c(N5CC6CCC(C5)N6)nc(OCC56CCCN5CC(F)C6)nc4c3F)c12` (configuration not stated) + Cc1cccc(N(C)C(=O)C2C(O)CCN2c2nc(C)cc(C(F)(F)F)c2C#N)c1, the viability, T/C was 95.8%.
`CC1COCCN1c1cc(C2(O)CC3CCC(C2)O3)c2cnn(-c3ccn[nH]3)c2n1` (configuration not stated) + Cc1cccc(N(C)C(=O)C2C(O)CCN2c2nc(C)cc(C(F)(F)F)c2C#N)c1: the viability, T/C is 31%.

The term IC50 denotes the concentration that gives 50% inhibition. Broadly, the viability, T/C is the result in the treated group divided by that in the control group, in per cent.
